Data taken from US8609610B2, “Inhibitors of the trypsin-like site of the proteasome and methods of use thereof” (Trustees of Dartmouth College, priority 2011, dated 2013).

What was measured:
[1] = system: chymotrypsin-like sites (β5) of proteasome in MM cells; experiment: PROTEASOMEGLO assay of proteasome inhibition in MM cells; format: cell-based; settings: washout
[2] = system: T1, chymotrypsin-like sites (β5) of proteasome in MM cells; experiment: as above; format: cell-based; settings: for Inhibition of chymotrypsin-like sites, 6 h −NC-022: washout
T1 construct: other: NCI-H929; bortezomib 100 nM 1 h; bortezomib 11 nM 1 h; bortezomib 3.7 nM 1 h; bortezomib 33 nM 1 h; other: NCI-H9

[3] = molecular target: T2, trypsin-like sites (β2) of proteasome in MM cells (Homo sapiens, UniProt Q99436); experiment: as above; format: cell-based; settings: for Inhibition of trypsin-like sites, 6 h +NC-022 / Inhibition of trypsin-like sites, 6 h −NC-022: washout
T2 construct: endogenous in cells; host or cells: NCI-H929, RPMI-8226 and other MM cell lines
T2 sequence (Q99436 44-277): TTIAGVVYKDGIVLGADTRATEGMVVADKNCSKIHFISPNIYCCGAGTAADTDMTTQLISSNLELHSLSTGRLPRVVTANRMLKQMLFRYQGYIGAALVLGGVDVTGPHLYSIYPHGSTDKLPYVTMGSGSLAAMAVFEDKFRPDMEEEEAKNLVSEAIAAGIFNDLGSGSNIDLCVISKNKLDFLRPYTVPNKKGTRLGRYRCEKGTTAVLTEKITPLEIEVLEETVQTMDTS

[4] = system: KMS-12-BM cells; experiment: ALAMAR BLUE cell viability assay; format: cell-based; settings: viability at 48 h
Summary of the method: (§1)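 Myeloma lines were grown in RPMI-1640 with 10% FBS; viability of myeloma cells was read by ALAMAR BLUE mitochondrial dye conversion. PBMNC viability used CELL TITER-GLO ATP luminescence. Caspase-3/7 activity in NCI-H929 and MM1.R was measured with the APO-ONE homogeneous assay.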

[5] = system: NCI-H929 cells; experiment: ALAMAR BLUE cell viability assay; format: cell-based; settings: NCI-H929, viability at 48 h
Summary of the method: as §1

[6] = system: chymotrypsin-like sites; settings: patients treated with carfilzomib; cited from earlier work
[7] = molecular target: T3, trypsin-like site of 26S proteasomes (Oryctolagus cuniculus, UniProt G1SWK8); experiment: Inhibition of purified 26S proteasomes, substrate Ac-RLR-amc; format: biochemical, rabbit; settings: purified 26S proteasomes; >>30 no inhibition at 30 μM, >30 inhibition between 10 and 50% at 30 μM; read-out: IC50 for sites in 26S proteasomes: Tr-L
T3 construct: IC50 for sites in 26S proteasomes: Tr-L; other: purified 26S proteasomes; other: 26S proteasomes from rabbit muscles
T3 sequence (G1SWK8 1-271): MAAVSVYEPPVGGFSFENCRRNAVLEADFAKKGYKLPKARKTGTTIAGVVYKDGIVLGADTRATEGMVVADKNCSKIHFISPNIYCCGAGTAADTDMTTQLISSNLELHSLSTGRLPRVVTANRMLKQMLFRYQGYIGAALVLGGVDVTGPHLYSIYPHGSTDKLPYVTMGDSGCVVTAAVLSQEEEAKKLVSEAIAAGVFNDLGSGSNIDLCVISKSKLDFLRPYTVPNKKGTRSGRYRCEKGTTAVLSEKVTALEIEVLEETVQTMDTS

[8] = molecular target: T4, chymotrypsin-like site of 26S proteasomes (Oryctolagus cuniculus, UniProt G1T4Q9); experiment: Inhibition of purified 26S proteasomes, substrate Suc-LLVY-amc; format: biochemical, rabbit; settings: >>30 no inhibition at 30 μM, >30 inhibition between 10 and 50% at 30 μM, read-out: IC50 for sites in 26S proteasomes: Chym-L
T4 sequence (G1T4Q9 1-263): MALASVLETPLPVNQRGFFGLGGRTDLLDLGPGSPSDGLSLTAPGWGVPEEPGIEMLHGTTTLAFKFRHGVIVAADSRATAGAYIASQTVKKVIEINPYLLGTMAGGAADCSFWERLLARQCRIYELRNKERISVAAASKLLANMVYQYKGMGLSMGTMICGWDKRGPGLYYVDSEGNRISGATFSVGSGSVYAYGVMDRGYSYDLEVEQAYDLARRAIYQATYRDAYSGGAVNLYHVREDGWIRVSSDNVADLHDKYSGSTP
Protocol: 26S proteasomes were purified from rabbit muscle using known methods (Screen, et al. (2010) supra). […] NOVEX Bis-Tris gels (12%, Invitrogen) with MOPS running buffer were used for electrophoretic separation of catalytic subunits modified by active-site probes. Inhibition of active sites inside cells was assayed using luminescent PROTEASOMEGLO assay (Promega; Moravec, et al. (2009) Anal. Biochem. 387:294-302) according to known methods (Britton, et al. (2009) supra).

[9] = system: trypsin-like sites (β2) of proteasome in MM cells; experiment: PROTEASOMEGLO assay of proteasome inhibition in MM cells; format: cell-based
[10] = system: Cathepsin B, H, L, S; experiment: Cathepsin activity with pan-cathepsin substrate Z-FR-amc; format: cell-based; settings: NCI-H929 cells, 6 hour treatment
Protocol: Cathepsin B, H, L, S activity was measured with pan-cathepsin substrate Z-FR-amc (Kirschke & Wiederanders (1994) Methods Enzymol. 244:500-11) in extracts of cytosol-less cells at pH 6.0 (Screen, et al. (2010) supra). Cathepsin D activity was measured in cytosol-less extracts using SENSOLYTE 520 Cathepsin D Fluorometric Assay Kit (AnaSpec). Combined cathepsin D and E activity was measured using the same kit, in which cathepsin D substrate provided with the kit was replaced with 7-Methoxycoumarin-[…](Dnp)-X′-NH2 (SEQ ID NO:10; where “X′” stand for D-Arg) internally quenched fluorogenic substrate of cathepsin D and E. In this case, pH 3.0 assay buffer used for cell extraction. All activity observed using both procedures was inhibited by more than 98% by specific inhibitor of aspartic proteases pepstatin A.

[11] = molecular target: T5, β2 proteasome subunit (Homo sapiens, UniProt P49720+Q99436); experiment: Competition assay in HEK-293T cell lysate with MV151; format: biochemical; settings: HEK293 extracts
T5 construct: Whole cell lysates of HEK-293T or EL-4 cells were made by sonication; endogenous in cells; host or cells: HEK-293T
Protocol: Protein concentration was determined by the Bradford assay.
Competitive inhibition of a proteasome active site is reflected by the disappearance of the corresponding band on a gel.

[12] = KMS-12-BM, carfilzomib 11 nM 1 h
[13] = KMS-12-BM, carfilzomib 33 nM 1 h
[14] = KMS-12-BM, carfilzomib 100 nM 1 h
[15] = KMS-12-BM, carfilzomib 300 nM 1 h
[16] = KMS-12-BM, carfilzomib 900 nM 1 h
[17] = NCI-H929, carfilzomib 3.7 nM 1 h
[18] = NCI-H929, carfilzomib 11 nM 1 h
[19] = NCI-H929, carfilzomib 33 nM 1 h

In the case of `CC(C)C[C@H](NC(=O)[C@H](CCc1ccccc1)NC(=O)CN1CCOCC1)C(=O)N[C@@H](Cc1ccccc1)C(=O)N[C@@H](CC(C)C)C(=O)[C@@]1(C)CO1` [Carfilzomib], the “Inhibition of chymotrypsin-like sites, 6 h +NC-022” value [1, 12] is reported as 63 ± 13 % control, the “Inhibition of chymotrypsin-like sites, 6 h +NC-022” value [1, 13] is reported as 84 ± 6 % control and the “Inhibition of chymotrypsin-like sites, 6 h +NC-022” value [1, 14] is reported as 90 ± 3 % control. For the same compound, the “Inhibition of chymotrypsin-like sites, 6 h +NC-022” value [1, 15] was 95 ± 4 % control, the “Inhibition of chymotrypsin-like sites, 6 h +NC-022” value [1, 16] was 99 ± 4 % control and the “Inhibition of chymotrypsin-like sites, 6 h +NC-022” value [1, 17] was 41 ± 29 % control. The “Inhibition of chymotrypsin-like sites, 6 h +NC-022” value [1, 18] was 52 ± 32 % control, the “Inhibition of chymotrypsin-like sites, 6 h +NC-022” value [1, 19] was 71 ± 23 % control and the “Inhibition of chymotrypsin-like sites, 1 h” value [2, 12] was 75 ± 6 % control. For the same compound, the “Inhibition of chymotrypsin-like sites, 6 h −NC-022” value [2, 12] was 67 ± 17 % control, the “Inhibition of chymotrypsin-like sites, 1 h” value [2, 13] was 90 ± 3 % control and the “Inhibition of chymotrypsin-like sites, 6 h −NC-022” value [2, 13] was 97 ± 1 % control. The “Inhibition of chymotrypsin-like sites, 1 h” value [2, 14] was 95 ± 3 % control, the “Inhibition of chymotrypsin-like sites, 6 h −NC-022” value [2, 14] was 97 ± 1 % control and the “Inhibition of chymotrypsin-like sites, 1 h” value [2, 15] was 97 ± 3 % control. For the same compound, the “Inhibition of chymotrypsin-like sites, 6 h −NC-022” value [2, 15] was 97 ± 1 % control, the “Inhibition of chymotrypsin-like sites, 1 h” value [2, 16] was 98 ± 3 % control and the “Inhibition of chymotrypsin-like sites, 6 h −NC-022” value [2, 16] was 97 ± 0 % control. For the same compound, the “Inhibition of chymotrypsin-like sites, 1 h” value [2, 17] was 14 ± 43 % control, the “Inhibition of chymotrypsin-like sites, 6 h −NC-022” value [2, 17] was 65.5 % control and the “Inhibition of chymotrypsin-like sites, 1 h” value [2, 18] was 39 ± 35 % control. For the same compound, the “Inhibition of chymotrypsin-like sites, 6 h −NC-022” value [2, 18] was 89 ± 11 % control, the “Inhibition of chymotrypsin-like sites, 1 h” value [2, 19] was 75 ± 17 % control and the “Inhibition of chymotrypsin-like sites, 6 h −NC-022” value [2, 19] was 95 ± 7 % control. The “Inhibition of trypsin-like sites, 1 h” value [3, 12] was −3 ± 10 % control, the “Inhibition of trypsin-like sites, 6 h +NC-022” value [3, 12] was 91 ± 2 % control and the “Inhibition of trypsin-like sites, 6 h −NC-022” value [3, 12] was 5 ± 25 % control. For the same compound, the “Inhibition of trypsin-like sites, 1 h” value [3, 13] was 0 ± 11 % control, the “Inhibition of trypsin-like sites, 6 h +NC-022” value [3, 13] was 91 ± 2 % control and the “Inhibition of trypsin-like sites, 6 h −NC-022” value [3, 13] was 45 ± 4 % control. The “Inhibition of trypsin-like sites, 1 h” value [3, 14] was 18 ± 8 % control, the “Inhibition of trypsin-like sites, 6 h +NC-022” value [3, 14] was 94 ± 2 % control and the “Inhibition of trypsin-like sites, 6 h −NC-022” value [3, 14] was 62 ± 2 % control. The “Inhibition of trypsin-like sites, 1 h” value [3, 15] was 49 ± 18 % control, the “Inhibition of trypsin-like sites, 6 h +NC-022” value [3, 15] was 93 ± 2 % control and the “Inhibition of trypsin-like sites, 6 h −NC-022” value [3, 15] was 69 ± 2 % control. For the same compound, the “Inhibition of trypsin-like sites, 1 h” value [3, 16] was 75 ± 14 % control, the “Inhibition of trypsin-like sites, 6 h +NC-022” value [3, 16] was 94 ± 3 % control and the “Inhibition of trypsin-like sites, 6 h −NC-022” value [3, 16] was 72 ± 2 % control. For the same compound, the “Inhibition of trypsin-like sites, 1 h” value [3, 17] was −7 ± 18 % control, the “Inhibition of trypsin-like sites, 6 h +NC-022” value [3, 17] was 93 ± 3 % control and the “Inhibition of trypsin-like sites, 6 h −NC-022” value [3, 17] was 3 % control. The “Inhibition of trypsin-like sites, 1 h” value [3, 18] was 0 ± 14 % control, the “Inhibition of trypsin-like sites, 6 h +NC-022” value [3, 18] was 93 ± 2 % control and the “Inhibition of trypsin-like sites, 6 h −NC-022” value [3, 18] was 39 ± 36 % control. The “Inhibition of trypsin-like sites, 1 h” value [3, 19] was 17 ± 8 % control, the “Inhibition of trypsin-like sites, 6 h +NC-022” value [3, 19] was 94 ± 3 % control and the “Inhibition of trypsin-like sites, 6 h −NC-022” value [3, 19] was 46 ± 24 % control. For the same compound, the “Viability +NC-022” value ([4]; carfilzomib 11 nM 1 h) was 69 ± 2 % control, the “Viability −NC-022” value ([4]; carfilzomib 11 nM 1 h) was 95 ± 3 % control and the “Viability +NC-022” value ([4]; carfilzomib 33 nM 1 h) was 40 ± 3 % control. The “Viability −NC-022” value ([4]; carfilzomib 33 nM 1 h) was 91 ± 3 % control, the “Viability +NC-022” value ([4]; carfilzomib 100 nM 1 h) was 27 ± 5 % control and the “Viability −NC-022” value ([4]; carfilzomib 100 nM 1 h) was 83.5 ± 3 % control. For the same compound, the “Viability +NC-022” value ([4]; carfilzomib 300 nM 1 h) was 15 ± 1 % control, the “Viability −NC-022” value ([4]; carfilzomib 300 nM 1 h) was 71 ± 2 % control and the “Viability +NC-022” value ([4]; carfilzomib 900 nM 1 h) was 9 ± 1 % control. The “Viability −NC-022” value ([4]; carfilzomib 900 nM 1 h) was 41 ± 7 % control, the “Viability +NC-022” value ([5]; carfilzomib 3.7 nM 1 h) was 36 ± 15 % control and the “Viability −NC-022” value ([5]; carfilzomib 3.7 nM 1 h) was 99 ± 9 % control. For the same compound, the “Viability +NC-022” value ([5]; carfilzomib 11 nM 1 h) was 14 ± 8 % control, the “Viability −NC-022” value ([5]; carfilzomib 11 nM 1 h) was 78 ± 15 % control and the “Viability +NC-022” value ([5]; carfilzomib 33 nM 1 h) was 4 ± 2 % control. The “Viability −NC-022” value ([5]; carfilzomib 33 nM 1 h) was 30 ± 11 % control and the “inhibition of the chymotrypsin-like sites in patients” value [6] was about 90%.

With `CC(C)C[C@H](NC(=O)[C@H](Cc1ccc(CN)cc1)NC(=O)[C@H](Cc1ccccc1)N=[N+]=[N-])C(=O)N[C@H](/C=C/S(C)(=O)=O)Cc1ccc(CN)cc1` [Compound 52, N3-Phe-Phe (4-CH2NH2)-Leu-Phe (4-CH2NH2)-VS] the IC50 [7] was 6.6 nM, the IC50 [8] was 3900 nM and the “difference in IC50 for trypsin-like activity between NCI-H929 and RPMI-8226” value [9] was 2.5 fold. For the same compound, the “inhibition of cathepsins (Z-FR-amc)” value [10] was “slightly more potent inhibitor of cathepsins” and the “potency in extracts of human cells” value [11] was “most potent inhibitor in extracts”.
